From patent publication US7342137B1, “Cyclohexenone compounds from Antrodia camphorata and application thereof” (Golden Biotechnology Corporation, priority 2007, dated 2008) come the findings set out here.

Test [1] concerns human breast-cancer cells, MCF-7. Put plainly: In vitro survival assay (MTT), breast cancer cells MCF-7. Format: cell-based. The conditions noted are these: MCF7, 48 hours incubation. The protocol:
(§1) The NCI anti-cancer drug screen model was adopted to test the anti-cancer effect of the compound from example 1 in the invention. The isolated compound of 4-hydroxy-2,3-dimethoxy-6-methyl-5(3,7,11-trimethyl-dodeca-2,6,10-trienyl)-cyclohex-2-enone from example 1 was added into the culture media of human breast-cancer cells, MCF-7 or MDA-MB-231, for tumor cell survival assay. This assay can be tested with 3-[4,5-dimethylthiazol-2-yl]2,5-diphenyltetrazolium bromide (MTT) assay, which is commonly used to determine cell proliferation, percent of viable cells, and cytotoxicity. MTT is a yellow dye, which can be absorbed by the living cells and be reduced to purplish blue formazan crystals by succinate tetrazolium reductase in mitochondria. Formazan formation can therefore be used to assess and determine the survival rate of cells.
(§2) The human breast-cancer cells, MCF-7 and MDA-MB-231 were separately cultivated in media containing fetal calf serum for 24 hours. The proliferated cells were washed once with PBS, then treated with 1× trypsin-EDTA and centrifuged at 1200 rpm for 5 minutes. The supernatant was discarded and the cell pellet was resuspended in 10 ml of fresh culture medium by gently shaking. The cells were placed in a 96-well plate. […] The plates were read on an ELISA reader at wavelength of 570 nm to determine the survival rates.

Test [2] has as its system Human low density lipoprotein (LDL). The experiment in a line: In vitro antioxidant activity study (Cu2+-induced LDL oxidation, diene formation). Format: biochemical. The conditions noted are these: 40 μg/mL formula 2; for Capacity values: capacity value 1 = 2 μM Trolox, antioxidant ability when larger than 0.5. The procedure: Human low density lipoprotein (LDL) oxidated with copper ion (Cu^2+) has been widely employed to assess antioxidant activities of samples to be assayed. Antioxidant activity of a sample is determined by the diene contents of LDL after oxidation and expressed in Trolox equivalents by using a standard curve calculated from the water-soluble vitamin E analogue Trolox standards (the antioxidant capacity value of 1 is expressed in terms of 2 μM of Trolox).
The following solutions were prepared firstly: double distilled water (the negative control group), 5 mM sodium phosphate buffer (SPB), 1 μM and 2 μM Trolox solution (the positive control group), and 40 μg/ml 4-hydroxy-2,3-dimethoxy-6-methyl-5(3,7,11-trimethyl-dodeca-2,6,10-trienyl)-cyclohex-2-enone isolated from example 1. The concentration of LDL cholesterol (LDL-C) was determined using enzyme reaction method, which was diluted to 0.1-0.25 mg/ml with 5 mM SPB. One hundred μl of the LDL was added into each well of a 96-well quartz plate, followed by addition of the abovementioned Trolox and the isolated compound from example 1. Standardized oxidizing agent CuSO4 was supplemented to induce oxidation at a final concentration of 5 μM in each 250 μl well. The plate was read on an ELISA reader at wavelength of 232 nm at 37 °C for 12 hours. The sampling time was 15 min.

For test [3], the system named is human prostate cancer cells, LNCaP. The experiment in a line: In vitro Taxol add-on study (MTT), prostate cancer cells LNCaP. In kind it is cell-based. The conditions noted are these: Homo sapiens; LNCaP (0.0017 μg/ml Taxol + formula 2) as printed in Table 6. The procedure: (§3) The experiment was also carried out according to NCI anti-cancer drug screen in vitro model. The human prostate cancer cells, LNCaP and DU-145 were separately cultivated in media containing fetal calf serum for 24 hours. The proliferated cells were washed once with PBS, then treated with 1× trypsin-EDTA and centrifuged at 1200 rpm for 5 minutes. The supernatant was discarded and the cell pellet was resuspended in 10 ml of fresh culture medium by gently shaking. The LNCaP cells were treated with 0.0017 μg/ml of Taxol for 72 hours and DU-145 cells were treated with 0.0043 μg/ml of Taxol for 72 hours before placing in a 96-well plate. 4-hydroxy-2,3-dimethoxy-6-methyl-5(3,7,11-trimethyl-dodeca-2,6,10-trienyl)-cyclohex-2-enone obtained from example 1 were added respectively into each of the 96 wells at the following concentrations: 0 μg/ml (the control group); 30, 10, 3, 1, 0.3, 0.1 and 0.03 μg/ml (the experiment group). The cells were incubated at 37° C. in a 5% CO2 incubator for 48 hours. MTT was added in a concentration of 2.5 mg/ml into each well in dark and reacted for 4 hours, followed by the addition of 100 μl of lysis buffer to stop the reaction. The plates were read on an ELISA reader at wavelength of 570 nm to determine the survival rates.

The subject of test [4] is human breast-cancer cells, MDA-MB-231. Put plainly: In vitro survival assay (MTT), breast cancer cells MDA-MB-231. Format: cell-based. The conditions noted are these: 48 hours incubation. The protocol:
as §1, §2

Test [5] relates to human hepatic cancer cells, Hep G2. The experiment in a line: In vitro Taxol add-on study (MTT), Hep G2. The conditions noted are these: Homo sapiens, HepG2, 0.0017 μg/ml Taxol + formula 2. Format: cell-based. The protocol:
as §3, with “human hepatic” for “human prostate”, “cells, Hep 3B” for “cells, LNCaP”, “and Hep G2 […]” for “and DU-145”, “The Hep 3B cells were treated with 0.0043 μg/ml of Lovastatin for 72 hours and Hep G2” for “The LNCaP”, “0.0017” for “0.0017 μg/ml of Taxol for 72 hours and DU-145 cells were treated with 0.0043”

A word on the IC50: it is the concentration at which inhibition is half-maximal. For the molecule `COC1=C(OC)C(O)C(C/C=C(\C)CC/C=C(\C)CCC=C(C)C)C(C)C1=O` (centres unmarked) [formula 2, 4-hydroxy-2,3-dimethoxy-6-methyl-5(3,7,11-trimethyl-dodeca-2,6,10-trienyl)-cyclohex-2-enone], the IC50 in test [1] stood at 0.852 µg/mL; in test [3], 0.961 µg/mL; in test [4], 1.03 µg/mL; in test [5] it was 8 ng/mL. Further, the “Tlag” value in test [2] (LDL oxidised with 5 μM CuSO4) came to 439 min. In addition, the Capacity values in test [2] was found to be 1.30; in test [2] (listed as 4-hydroxy-2,3-dimethoxy-6-methyl-5(3,7,11-trimethyl-dodeca-2,6,10-trienyl)-cyclo) it was 1.3. The “ΔTlag” value in test [2] (difference between Tlag and Tlag0 (H2O)) is recorded as 208 min.
